Assays:
[1] = molecular target: T1, human RORγt ligand binding domain (RORγt LBD) (Homo sapiens, UniProt P51449); assay: RORγt ThermoFluor assay (ligand binding affinity from protein thermal stability)
T1 construct: His-tag (N); TurboTEV protease cleavage site (ENLYFQG) (N); made in house; host or cells: E. coli (pHIS1, modified pET vector)
T1 sequence (P51449 with tags, fused parts or gaps): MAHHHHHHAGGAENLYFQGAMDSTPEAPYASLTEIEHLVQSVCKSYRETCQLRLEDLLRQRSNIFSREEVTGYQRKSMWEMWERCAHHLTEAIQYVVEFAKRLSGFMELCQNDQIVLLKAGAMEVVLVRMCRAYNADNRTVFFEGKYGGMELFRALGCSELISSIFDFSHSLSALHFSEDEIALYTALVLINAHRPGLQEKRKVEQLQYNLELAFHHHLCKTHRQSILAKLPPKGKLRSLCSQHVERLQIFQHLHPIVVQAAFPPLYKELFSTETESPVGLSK
Description: This approach is applicable to a wide variety of systems, and rigorous in theoretical interpretation through quantitation of equilibrium binding constants (KD).
The shift in the melting point described as a ΔTm is proportional to the concentration and affinity of the ligand.
RORγt ThermoFluor® Assay Construct
Protein and compound solutions are dispensed into black 384-well polypropylene PCR microplates (Abgene) and overlayed with silicone oil (1 μL, Fluka, type DC 200) to prevent evaporation.
Bar-coded assay plates are robotically loaded onto a thermostatically controlled PCR-type thermal block and then heated at a typical ramp-rate of 1° C./min for all experiments. Fluorescence was measured by continuous illumination with UV light (Hamamatsu LC6) supplied via fiber optic and filtered through a band-pass filter (380-400 nm; >6 OD cutoff). Fluorescence emission of the entire 384-well plate was detected by measuring light intensity using a CCD camera (Sensys, Roper Scientific) filtered to detect 500±25 nm, resulting in simultaneous and independent readings of all 384 wells. Images were collected at each temperature, and the sum of the pixel intensity in a given area of the assay plate was recorded versus temperature. Reference wells contained RORγt without compounds, and the assay conditions were as follows: • 0.065 mg/mL RORγt • 60 μM 1,8-ANS • 100 mM Hepes, pH 7.0 • 10 mM NaCl • 2.5 mM GSH • 0.002% Tween-20
Project compounds were arranged in a pre-dosed mother plate (Greiner Bio-one) wherein compounds are serially diluted in 100% DMSO by 1:2 from a high concentration of 10 mM over 12 columns within a series (column 12 is a reference well containing DMSO, no compound). The compounds were robotically dispensed directly into assay plates (1×=[…]) using a Hummingbird capillary liquid handling instrument (Digilab). Following compound dispense, protein and dye in buffer was added to achieve the final assay volume of 3 μL, followed by 1 μL of silicone oil.

[2] = molecular target: T2, human RORγt LBD (Homo sapiens, UniProt P51449); assay: RORγt (LBD) reporter assay in HEK293T cells; type: cell-based; details: for RORγt (LBD) Reporter Assay, % inhibition @ 6 μM: 6 μM compound; for inhibition at 6 µM: HEK-293T, read-out: RORγt (LBD) Reporter Assay, % inhibition @ 6 μM, 6 μM compound
T2 construct: expressed in transfected cells; host or cells: HEK293T
T2 sequence (P51449 258-518): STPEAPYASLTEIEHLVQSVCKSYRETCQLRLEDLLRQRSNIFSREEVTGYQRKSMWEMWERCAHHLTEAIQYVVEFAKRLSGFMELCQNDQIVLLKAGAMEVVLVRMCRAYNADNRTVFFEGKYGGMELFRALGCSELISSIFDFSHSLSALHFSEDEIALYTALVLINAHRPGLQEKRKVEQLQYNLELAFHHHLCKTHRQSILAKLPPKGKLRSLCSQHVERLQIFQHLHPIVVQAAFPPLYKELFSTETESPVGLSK
From the text: RORγt (LBD) Reporter Assay
Cells used in the assay were co-transfected with two constructs. The first construct, pBIND-RORγt LBD, contained the wild type human RORγt LBD fused to the DNA binding domain of the GAL4 protein. The second construct, pGL4.31 (Promega Cat no. C935A), contained multiple GAL4 responsive DNA elements upstream of firefly luciferase. […] The mutant construct was called pBIND-RORγt-AF2.
The pBIND vector contains the GAL4 DNA Binding Domain (GAL4 DBD) and the renilla luciferase gene under control of the SV40 promoter. Renilla luciferase expression serves as a control for transfection efficiency and cell viability.
The reporter assay was performed by transiently transfecting HEK293T cells with 5 μg of pBIND-RORγt LBD or pBIND-RORγt LBD-AF2 and 5 μg pGL4.31 (Promega Cat no. C935A) using Fugene 6 (Invitrogen Cat no. E2691) at a 1:6 ratio of DNA:Fugene 6 in a T-75 flask in which cells were at least 80% confluent. Twenty four hours after bulk transfection, cells were plated into 96-well plates at 50,000 cells/well in phenol-red free DMEM containing 5% Lipid Reduced FCS and Pen/Strep. Six hours after plating, cells were treated with compounds for 24 hours. Media was removed and cells were lysed with 50 μL 1× Glo Lysis Buffer (Promega). Dual Glo Luciferase Reagent (50 μL/well) was then added and firefly luciferase luminescence was read on an Envision after a ten minute incubation. Finally, Stop and Glo reagent (50 μL/well) was added and renilla luciferase luminescence was read on an Envision after a ten minute incubation. […] Agonist compounds increase RORγt-driven luciferase expression, and antagonist or inverse agonist compounds decrease luciferase expression.

[3] = test system: IL-17 production by CD4 T cells; assay: Human Th17 assay; type: cell-based; details: Homo sapiens, CD4+ T, IL-17 production by human CD4 T cells
Description: The human Th17 assay tests the effect of RORγt modulatory compounds on IL-17 production by CD4 T cells under conditions which favor Th17 differentiation. Total CD4^+ T cells were isolated from the peripheral blood mononuclear cells (PBMC) of healthy donors using a CD4^+ T cell isolation kit II, following the manufacturer's instructions (Miltenyi Biotec). […] 50 μL of compound at titrated concentrations in DMSO were added into each well at final DMSO concentration at 0.2%. Cells were incubated for 1 hour, then 50 μL of Th17 cell differentiation medium was added to each well. The final concentrations of antibodies and cytokines (R&D Systems) in differentiation medium were: 3×10^6/mL anti-CD3/CD28 beads (prepared using human T cell activation/expansion kit, Miltenyi Biotec), 10 μg/mL anti-IL4, 10 μg/mL anti-IFNγ, 10 ng/mL IL1β, 10 ng/mL IL23, 50 ng/mL IL6, 3 ng/mL TGFβ and 20 U/mL IL2. Cells were cultured at 37° C. and 5% CO2 for 3 days. Supernatants were collected and the accumulated IL-17 in culture was measured by using MULTI-SPOT® Cytokine Plate following manufacture's instruction (Meso Scale Discovery). The plate was read using Sector Imager 6000, and IL-17 concentration was extrapolated from the standard curve. The IC50s were determined by GraphPad.

| SMILES | Kd [1] [µM] | IC50 [2] [µM] | RORγt (LBD) Reporter Assay, % inhibition @ 6 μM [2] [%] | IC50 [3] [µM] | inhibition at 6 µM [2] [%] |
| --- | --- | --- | --- | --- | --- |
| COc1nc2ccc(C(O)(c3ccc(Cl)cc3)c3cncn3C)cc2c(Cl)c1Cc1ccc(C(F)(F)F)nc1 (single isomer, unassigned) [Example 39c] | 0.019 | 0.081 | 98 | 0.037 | – |
| COc1nc2ccc(C(O)(c3ccc(C)nc3C)c3cnnn3C)cc2c(Cl)c1Cc1ccc(F)cc1 (single isomer, unassigned) [Example 48c, (4-Chloro-3-(4-fluorobenzyl)-2-methoxyquinolin-6-yl)(2,6-dimethylpyridin-3-yl)(1-methyl-1H-1,2,3-triazol-5-yl)methanol] | 0.0003 | ~0.08 | 63 | 0.0023 | – |
| COc1nc2ccc(C(O)(c3ccc(C(F)(F)F)cc3)c3cccnc3)cc2c(Cl)c1Cc1ccc(-n2cccn2)cc1 (single isomer, unassigned) [Example 162c] | 0.0041 | 0.098 | 98 | 0.049 | – |
| COc1nc2ccc(C(O)(c3ccc(Cl)cc3)c3cncn3C)cc2c(Cl)c1Cc1ccc(C(F)(F)F)nc1 (centres unmarked) [Example 39a] | 0.066 | 0.072 | – | 0.11 | 92 |
| COc1nc2ccc(C(O)(c3ccc(C(F)(F)F)cc3)c3cccnc3)cc2c(Cl)c1Cc1ccc(-n2cccn2)cc1 (centres unmarked) [Example 162a] | 0.02 | 0.31 | – | 0.25 | 90 |

From US9284308B2, “Methylene linked quinolinyl modulators of RORγt” (Janssen Pharmaceutica NV, priority 2013, dated 2016)
